In patent publication US9555038B2, “Heterocycle-substituted tetracyclic compounds and methods of use thereof for the treatment of viral diseases” (Merck Sharp & Dohme Corp., priority 2013, dated 2017):
Like-named read-outs stand apart in the source and are kept apart here.

Key:
HCV replicon 1A = test: Cell-based HCV Replicon Assay A, replicon 1A
How it was run: (§1)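 Readout: replicon RNA by real-time RT-PCR, normalised to co-amplified cyclophilin and quantified against replicon total-RNA standard curves. Cells (2000/well) treated 3 days in medium with 5% FBS and 0.5% DMSO, compound in 10 serial dilutions from starting concentrations of 333.3 nM to 1.667 nM.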

HCV replicon 1B = test: Cell-based HCV Replicon Assay B, replicon 1B
Experimental: In an alternate assay (“Replicon Assay B”), 1000 cells were seeded per well in a 384-well collagen coated black plate from Greiner bio-one (Cat #781946) in 5% FBS. Inhibitors of this invention were added at 24 h post-seeding, and the plates were incubated for 3 days. Cells were subsequently lysed with Qiagen lysis buffer (Cat #1062731) to extract the RNA. HCV replicon RNA level was measured by real-time PCR using the RNA-to-CT kit from Applied Biosystem (Cat #4392656) and genotype-specific primers and probes. The amplicon was located within NS5B. The sequence of the PCR primers are as follows: 5B.2F, ATGGACAGGCGCCCTGA (SEQ. ID NO. 1); 5B.2R, […] (SEQ. ID NO. 2); the probe sequence was FAM-labeled CACGCCATGCGCTGCGG (SEQ. ID NO. 3). To detect genotype 1A the primer 1A F, TGCGGAACCGGTGAGTACA and 1A R, […] were used; the probe sequence was FAM-[…].
The real-time RT-PCR reactions were run on ABI PRISM 7900HT or Viia7 Sequence Detection System using the following program: 48° C. for 30 minutes, 95° C. for 10 minutes, 40 cycles of 95° C. for 15 sec, 60° C. for 1 minutes. The 50% effective concentration (EC50) was the drug concentration necessary to achieve an increase in the cycle threshold (CT) of 1 over the projected baseline CT.
Data was obtained for various compounds of the present invention using the methods described in the Example above, and is presented in the table immediately below. Data for replicons 1A, 1AY93H and 2B were obtained using Replicon Assay A and data for replicons 1AQ30D and 1B were obtained using Replicon Assay B.

HCV replicon 2B = test: Cell-based HCV Replicon Assay A, replicon 2B
How it was run: as §1

HCV replicon 1AY93H = test: Cell-based HCV Replicon Assay A, replicon 1AY93H
How it was run: as §1

[1] = Hepatitis C virus, read-out: 2B IC50 (nM), replicon 2B
[2] = Hepatitis C virus, read-out: 1A Y93H IC50 (nM), replicon 1AY93H
[3] = read-out: 1A Y93H IC50, replicon 1AY93H

Row | Compound | IC50 (HCV replicon 1A; Hepatitis C virus) | IC50 (HCV replicon 1B; Hepatitis C virus) | IC50 (HCV replicon 2B; [1]) | IC50 (HCV replicon 2B; read-out: 2B IC50, replicon 2B) | IC50 (HCV replicon 1AY93H; [3]) | IC50 (HCV replicon 1A) | IC50 (HCV replicon 1B) | also measured
1 | COC(=O)N[C@H](C(=O)N1CCC[C@H]1c1ncc(-c2cc(F)c3c(c2)OC(c2nc(C4CC4)sc2C)n2c-3cc3cc(-c4cnc([C@@H]5CCCN5C(=O)[C@@H](NC(=O)OC)C(C)C)[nH]4)ccc32)[nH]1)C(C)C (mixture of isomers) [Compound 451] | 2.5 pM | 2.7 pM | – | – | – | – | – | –
2 | COC(=O)N[C@H](C(=O)N1CCC[C@H]1c1ncc(-c2cc(F)c3c(c2)OC(c2csnn2)n2c-3cc3cc(-c4cnc([C@@H]5CCCN5C(=O)[C@@H](NC(=O)OC)C(C)C)[nH]4)ccc32)[nH]1)C(C)C (mixture of isomers) [Compound 501] | 3.9 pM | 3.6 pM | 1.32 nM | – | – | – | – | IC50 (HCV replicon 1AY93H; [2]): 0.857 nM
3 | COCc1ncc(C2Oc3cc(-c4cnc([C@@H]5CCCN5C(=O)[C@@H](NC(=O)OC)C(C)C)[nH]4)cc(F)c3-c3cc4cc(-c5cnc([C@@H]6CCCN6C(=O)[C@@H](NC(=O)OC)C(C)C)[nH]5)ccc4n32)s1 (single isomer, unassigned) [Compound 17] | 1.2 pM | 2 pM | – | 0.528 nM | 1.01 nM | – | – | –
4 | COC(=O)N[C@H](C(=O)N1CCC[C@H]1c1ncc(-c2cc(F)c3c(c2)OC(c2cnc(-c4ccc(OC)cc4)s2)n2c-3cc3cc(-c4cnc([C@@H]5CCCN5C(=O)[C@@H](NC(=O)OC)C(C)C)[nH]4)ccc32)[nH]1)C(C)C (single isomer, unassigned) [Compound 46] | – | – | – | 0.252 nM | 0.534 nM | 1.8 pM | 1 pM | –
5 | CCCc1ncc(C2Oc3cc(-c4cnc([C@@H]5CCCN5C(=O)[C@@H](NC(=O)OC)C(C)C)[nH]4)cc(F)c3-c3cc4cc(-c5cnc([C@@H]6CCCN6C(=O)C(NC(=O)OC)C6CCOC(C)(C)C6)[nH]5)ccc4n32)s1 (single isomer, unassigned) [Compound 60] | – | – | – | 0.184 nM | 0.4 nM | 4 pM | 4 pM | –
6 | COC(=O)NC(C(=O)N1CCC[C@H]1c1ncc(-c2ccc3c(c2)cc2n3C(c3cnc(C(C)(C)O)s3)Oc3cc(-c4cnc([C@@H]5CCCN5C(=O)[C@@H](NC(=O)OC)C(C)C)[nH]4)cc(F)c3-2)[nH]1)C1C[C@@H](C)O[C@@H](C)C1 (single isomer, unassigned) [Compound 73] | 5.7 pM | 5 pM | – | 0.146 nM | 0.586 nM | – | – | –
7 | COC(=O)N[C@H](C(=O)N1CCC[C@H]1c1ncc(-c2cc(F)c3c(c2)OC(c2cnc(-c4ccc(F)cc4F)s2)n2c-3cc3cc(-c4cnc([C@@H]5CCCN5C(=O)[C@@H](NC(=O)OC)C(C)C)[nH]4)ccc32)[nH]1)C(C)C (single isomer, unassigned) [Compound 98] | 2.7 pM | 1.2 pM | – | 0.003 nM | 0.01 nM | – | – | –
8 | COC(=O)NC(C(=O)N1CCC[C@H]1c1ncc(-c2ccc3c(c2)cc2n3C(c3cnc(C4CCCC4)s3)Oc3cc(-c4cnc([C@@H]5CCCN5C(=O)[C@@H](NC(=O)OC)C(C)C)[nH]4)cc(F)c3-2)[nH]1)C1CCOC(C)(C)C1 (single isomer, unassigned) [Compound 111] | 2.2 pM | 2 pM | 0.003 nM | – | – | – | – | IC50 (HCV replicon 1AY93H; [2]): 0.005 nM
9 | CCc1nnc(C2Oc3cc(-c4cnc([C@@H]5CCCN5C(=O)[C@@H](NC(=O)OC)C(C)C)[nH]4)cc(F)c3-c3cc4cc(-c5cnc([C@@H]6CCCN6C(=O)C(NC(=O)OC)C(C)C)[nH]5)ccc4n32)s1 (single isomer, unassigned) [Compound 114] | – | 3 pM | – | – | – | 2.7 pM | – | –
10 | COC(=O)N[C@H](C(=O)N1CCC[C@H]1c1ncc(-c2cc(C)c3c(c2)OC(c2cnc(C4CCC4)s2)n2c-3cc3cc(-c4cnc([C@@H]5C[C@H]6C[C@H]6N5C(=O)[C@@H](NC(=O)OC)C(C)C)[nH]4)ccc32)[nH]1)C(C)C (single isomer, unassigned) [Compound 207] | 3 pM | 5 pM | 0.25 nM | – | – | – | – | IC50 (HCV replicon 1AY93H; [2]): 0.26 nM
11 | COC(=O)NC(C(=O)N1[C@@H]2C[C@@H]2C[C@H]1c1ncc(-c2ccc3c(c2)cc2n3C(c3cnc(C4CC4)s3)Oc3cc(-c4cnc([C@@H]5CCCN5C(=O)[C@@H](NC(=O)OC)C(C)C)[nH]4)cc(F)c3-2)[nH]1)C1C[C@@H](C)O[C@H](C)C1 (single isomer, unassigned) [Compound 312] | 3.1 pM | 2 pM | – | – | – | 2.5 pM | 3 pM | –
12 | COC(=O)N[C@H](C(=O)N1CCC[C@H]1c1ncc(-c2cc(F)c3c(c2)OC(c2cnc(C4(C)CCCC4)s2)n2c-3cc3cc(-c4cnc([C@@H]5C[C@H]6C[C@H]6N5C(=O)[C@@H](NC(=O)OC)C(C)C)[nH]4)ccc32)[nH]1)C(C)C (single isomer, unassigned) [Compound 455] | – | – | – | – | 0.981 nM | 1.7 pM | 3.4 pM | –
13 | COC(=O)N[C@H](C(=O)N1CCC[C@H]1c1ncc(-c2cc(F)c3c(c2)OC(c2cnc(C4CC4)s2)n2c-3c(C)c3cc(-c4cnc([C@@H]5CCCN5C(=O)[C@@H](NC(=O)OC)C(C)C)[nH]4)ccc32)[nH]1)C(C)C (single isomer, unassigned) [Compound 496] | – | – | – | – | – | 6.9 pM | 3.5 pM | –
14 | COC(=O)N[C@H](C(=O)N1CCC[C@H]1c1ncc(-c2cc(F)c3c(c2)OC(c2cc(C)ns2)n2c-3cc3cc(-c4cnc([C@@H]5CCCN5C(=O)[C@@H](NC(=O)OC)C(C)C)[nH]4)ccc32)[nH]1)C(C)C (single isomer, unassigned) [Compound 502] | 1.6 pM | 2.5 pM | 2.31 nM | – | – | – | – | –
15 | COC(=O)N[C@H](C(=O)N1CCC[C@H]1c1ncc(-c2cc(F)c3c(c2)OC(c2sc(C(C)C)nc2C)n2c-3cc3cc(-c4cnc([C@@H]5CCCN5C(=O)[C@@H](NC(=O)OC)C(C)C)[nH]4)ccc32)[nH]1)C(C)C (single isomer, unassigned) [Compound 516] | – | – | – | – | 3.22 nM | 1.7 pM | 2.6 pM | –
16 | COC(=O)N[C@H](C(=O)N1CCC[C@H]1c1ncc(-c2cc(F)c3c(c2)OC(c2cnc(C4CC4)s2)n2c-3cc3cc(-c4cnc([C@@H]5CC6(C)CC6N5C(=O)[C@@H](NC(=O)OC)C(C)C)[nH]4)ccc32)[nH]1)C(C)C (single isomer, unassigned) [Compound 520] | – | – | – | – | – | 3.3 pM | 3.7 pM | IC50 (HCV replicon 1AY93H; replicon 1AY93H, read-out: 1A Y93H IC50): 2.71 nM
17 | COC(=O)N[C@H](C(=O)N1CCC[C@H]1c1ncc(-c2cc(F)c3c(c2)OC(c2sc(C4CC4)nc2C2CC2)n2c-3cc3cc(-c4cnc([C@@H]5CCCN5C(=O)[C@@H](NC(=O)OC)C(C)C)[nH]4)ccc32)[nH]1)C(C)C (single isomer, unassigned) [Compound 525] | 4.5 pM | 2.2 pM | – | – | – | – | – | –
18 | COC(=O)N[C@H](C(=O)N1CCC[C@H]1c1ncc(-c2cc(F)c3c(c2)OC(c2sc(C4CC4)nc2C2CC2)n2c-3cc3cc(-c4cnc([C@@H]5CCCN5C(=O)[C@@H](NC(=O)OC)C(C)C)[nH]4)ccc32)[nH]1)C(C)C (single isomer, unassigned) [Compound 526] | – | – | 0.537 nM | – | – | 2.4 pM | 1.1 pM | –
19 | COC(=O)NC(C(=O)N1CCC[C@H]1c1ncc(-c2ccc3c(c2)cc2n3C(c3nc4c(s3)CCC4)Oc3cc(-c4cnc([C@@H]5CCCN5C(=O)[C@@H](NC(=O)OC)C(C)C)[nH]4)cc(F)c3-2)[nH]1)C1CCOC(C)(C)C1 (single isomer, unassigned) [Compound 536] | – | – | – | – | – | 2.3 pM | 2.7 pM | IC50 (HCV replicon 2B; replicon 2B, read-out: 2B IC50): 0.029 nM
20 | COC(=O)NC(C(=O)N1CCC[C@H]1c1ncc(-c2ccc3c(c2)cc2n3C(c3cnc(CC(C)C)s3)Oc3cc(-c4cnc([C@@H]5CCCN5C(=O)[C@@H](NC(=O)OC)C(C)C)[nH]4)cc(F)c3-2)[nH]1)C1CCOC(C)(C)C1 (single isomer, unassigned) [Compound 543] | – | – | – | 0.153 nM | 0.167 nM | 2.1 pM | – | –
21 | COC(=O)NC(C(=O)N1CCC[C@H]1c1ncc(-c2ccc3c(c2)cc2n3C(c3cnc(CC(C)C)s3)Oc3cc(-c4cnc([C@@H]5CCCN5C(=O)[C@@H](NC(=O)OC)C(C)C)[nH]4)cc(F)c3-2)[nH]1)C1C[C@@H](C)O[C@@H](C)C1 (single isomer, unassigned) [Compound 546] | 1.4 pM | – | – | 0.165 nM | 0.315 nM | – | – | –
22 | COC(=O)N[C@H](C(=O)N1CCC[C@H]1c1ncc(-c2cc(F)c3c(c2)OC(c2cnc(-c4ccc(F)cc4F)s2)n2c-3cc3cc(-c4cnc([C@@H]5CCCN5C(=O)[C@@H](NC(=O)OC)C(C)C)[nH]4)ccc32)[nH]1)C(C)C (some centres unmarked) [Compound 55] | 1.2 pM | – | 0.003 nM | – | – | – | – | IC50 (HCV replicon 1AY93H; [2]): 0.0021 nM
23 | COC(=O)N[C@H](C(=O)N1CCC[C@H]1c1ncc(-c2cc(F)c3c(c2)OC(c2cnc(-c4ccncn4)s2)n2c-3cc3cc(-c4cnc([C@@H]5CCCN5C(=O)[C@@H](NC(=O)OC)C(C)C)[nH]4)ccc32)[nH]1)C(C)C (some centres unmarked) [Compound 503] | 2.2 pM | – | 0.362 nM | – | – | – | – | IC50 (HCV replicon 1AY93H; [2]): 0.149 nM
